Data reported in patent US20090238852A1, “METHODS FOR CONTROLLING INTRACELLULAR CALCIUM LEVELS ASSOCIATED WITH AN ISCHEMIC EVENT” (University of Utah Research Foundation, priority 2008, published 2009).
Read-outs that look alike come from different tables or passages of the source.

Key:
[1] = tested on: pigs, 75 min LAD balloon occlusion and 3 h reperfusion; experiment: Porcine ischemia/reperfusion model: global ejection fraction by contrast ventriculography; type: in vivo, pig; details: for Global Ejection Fraction, Baseline: before ischemia and dosing; for Global Ejection Fraction, 180 Minutes after End of Ischemia: control 34 ± 3
From the text: Arterial access was achieved via bilateral femoral artery cut-downs for the insertion of 8F sheaths. Central venous and carotid access was achieved via a neck incision to expose the external jugular vein and common carotid artery. Animals were then anticoagulated with 50 U/kg of unfractionated heparin to maintain an activated clotting time (ACT) between 250-350 seconds, prior to ischemia. A 7-8 Fr pigtail catheter was placed in the left ventricular cavity to measure pressure and for injection of […] microspheres. Angiography was performed to define coronary anatomy and measure the diameter of the left anterior descending coronary artery (LAD) at the point of intended balloon occlusion. A coronary sinus catheter was placed via the external jugular vein under fluoroscopic guidance for coronary venous sampling. Baseline cardiodynamic and hemodynamic data were measured using a solid state transducer-tipped catheter in the left ventricle (Millar Instruments, Houston, Tex.) to measure left ventricular pressure, and a fluid-filled transducer connected to the side port of the femoral artery sheath to measure peripheral arterial pressure. Approximately 3-4 million neutron-activated microspheres (BioPhysics Assay Laboratory, Inc, Worcester, Ma) (15 μm) were delivered through a pig-tail catheter into the left ventricle over a 30 second period, to quantify regional myocardial blood flow (RMBF). Simultaneously with injection, a reference sample was withdrawn at a rate of 7 cc/min from the femoral artery sheath, for 90 seconds during and after injection of microspheres. A contrast ventriculogram (60° right anterior oblique) was obtained to assess global and regional myocardial function at baseline. An angioplasty balloon catheter sized to exceed ambient diameter by 1 mm (range chosen was 3.0-4.0 mm) was then inserted into the proximal LAD, after the first diagonal branch. […] In addition, 2% lidocaine (4-8 ml total) was administered during ischemia, as needed, to attenuate ventricular arrhythmias. Balloon occlusion time was 75 minutes with coronary occlusion confirmed by contrast angiography, ST segment changes on electrocardiography, and quantitatively confirmed by microspheres delivered at the end of ischemia, as described above. Episodes of ventricular fibrillation were immediately treated with electrical cardioversion delivered at 200 Joules. During the ischemic period, animals were randomly assigned to receive either saline vehicle or 2-O, 3-O desulfated heparin (ODSH) at a dose of 5 mg/kg, 15 mg/kg, or 45 mg/kg as an IV bolus at 2 minutes prior to deflation of the balloon (pharmacological postconditioning), and repeated at 90 minutes of reperfusion. Following deflation of the angioplasty balloon, animals underwent 3 hours of further reperfusion and observation. Microspheres were again injected to measure myocardial blood flow at 15 minutes of reperfusion and again at 180 minutes of reperfusion. At the end of 180 minutes of reperfusion, animals were euthanized with an IV injection of pentobarbital sodium (100 mg/kg) and the heart was excised to quantify the area at risk, infarct size, regional myocardial blood flow, and myeloperoxidase activity. Hemodynamic data (left ventricular and arterial blood pressure) and derived variables were recorded continuously using 10× and Datanalyst software (EMKA Technologies, Falls Church, Va.).
Left ventricular contrast angiography was performed at baseline, ischemia, and 180 minutes after relief of ischemia. Contrast (Hypaque, approximately 50 mL) was rapidly injected via a pigtail catheter using a power injector. Left ventricular ejection fraction (LVEF) and regional function of the antero-lateral wall was calculated using the area-length method, which outlined the ventricle at the end of systole and diastole. LVEF and regional function were analyzed independently by 2 blinded observers.

[2] = tested on: blood coagulation (aPTT, ACT); experiment: Phase I bolus plus 12 hour infusion study: coagulation tests (aPTT, ACT); type: in vivo, human; details: all dosing regimens; FIG. 20
Experimental: A study was performed in twenty-four (24) healthy adult subjects to assess the effects of a bolus dose and 12 hour infusion of 2-O, 3-O desulfated heparin. The study was a Phase I, randomized, double-blind, dose escalation study with single-day treatment periods. Subjects were males between the ages of 18 and 45, and were normal in body weight. They all had normal coagulation function and hemoglobin values at baseline. […] Eighteen (18) subjects were randomized to receive ODSH and six (6) subjects were randomized to receive placebo. Subjects received either ODSH or placebo as described below in Table 13.
For each subject, ODSH as a 50 mg/ml formulation was diluted with normal saline and administered as a bolus infused over 15 minutes containing the calculated amount of ODSH the subject was to receive, followed by a constant infusion for 12 hours of ODSH diluted in saline. Placebo consisted of 50 mL of normal saline infused over 15 minutes, followed by normal saline infused for 12 hours. Immediately before infusion and after the start of each infusion, blood was drawn at periodic times (over a total 24 hour period) to monitor the effect of infusion on the following laboratory studies: activated partial thromboplastin time (aPTT); prothrombin time (PT); activated clotting time (ACT); and ODSH plasma level.

[3] = in vivo
Experimental: A study was performed in 38 volunteer human subjects to assess the safety of escalating bolus doses of 2-O, 3-O desulfated heparin (ODSH). The study was a Phase I, randomized, double-blind, dose-escalation study with a single-day treatment period. Subjects were between the ages of 18 and 45, were not pregnant, and were normal in body weight. They all had normal coagulation function and hemoglobin values at baseline.
Two subjects also received an injection of fully anticoagulated unfractionated heparin for comparison. ODSH dose groups were run in a series, and safety and tolerance data were evaluated prior to the start of the next dose level (4, 8 12, 16 and 20 mg/kg bolus intravenous doses). Twenty eight (28) subjects randomly received ODSH and 9 subjects were randomized to receive placebo, with an additional two subjects receiving commercially available unfractionated heparin.
For each bolus dose, ODSH as a 50 mg/mL formulation was diluted with normal saline and a total volume of 50 ml was infused over 15 minutes containing the calculated amount of ODSH the subject was to receive. Placebo consisted of 50 mL of normal saline infused over 15 minutes. For subjects receiving heparin, 5,000 units (approximately 0.5 mg/kg) of heparin was diluted into 50 ml of normal saline and infused over 15 minutes.
Immediately before infusion and beginning 7 minutes after the start of each infusion, blood was drawn at periodic times for 24 hours to monitor the effect of infusion on the following laboratory studies: activated partial thromboplastin time (aPTT); prothrombin time (PT); activated clotting time (ACT); and ODSH plasma level. Serum chemistries and a complete blood count were checked immediately before infusion and at eight (8) and twenty-four (24) hours later. Using values for aPTT and ODSH levels, pharmacokinetic parameters were calculated by noncompartmental methods using a commercial software program (PhAST 2.3-001). The following pharmacokinetic parameters were calculated: • a) Maximum measured plasma concentration (Cmax); • b) First-order terminal elimination rate constant (Kel), calculated from a semi-log plot of the serum concentration versus time curve; this parameter was calculated by linear least-square regression analysis using the maximum number of points in the terminal log-linear phase (e.g., 3 or more non-zero serum concentrations); • c) Time of the maximum measured drug plasma concentration (tmax); • d) The area under the plasma concentration versus time curve from time 0 to the last observation (AUC 0-t), calculated by the linear trapezoidal method; • e) The area under the plasma concentration versus time curve from time 0 to infinity (AUCinf), which was calculated as the sum of AUC 0-t plus the ratio of the last measurable serum concentration to the elimination rate constant; • f) First-order terminal elimination (t1/2), calculated as 0.693/Kel; • g) Total body clearance (CL), calculated as Dose/AUCinf, and • h) Total volume of distribution (Vdss), calculated as MRT×CL.

[4] = human, in vivo
Experimental: A study was performed in eight (8) healthy adult male and female subjects to assess the effects of a bolus dose and 72 hour infusion of 2-O, 3-O desulfated heparin. The study was a Phase I study with a three day treatment period. Doses were adjusted to maintain an aPTT level of 40-45 seconds. Subjects were between the ages of 18 and 60, were not pregnant, and were normal in body weight. They all had normal coagulation function and hemoglobin values at baseline.
Subjects received an initial bolus of 8 mg/kg of ODSH over 15 minutes, followed by 72 hours continuous infusion beginning at 0.58 mg/kg/hr. For each subject ODSH as a 50 mg/ml formulation was diluted with normal saline and administered as a bolus infused over 15 minutes containing the calculated amount of ODSH the subject was to receive, followed by infusion of ODSH diluted in saline. The infusion dose was adjusted to maintain an aPTT of 40-45 seconds. Immediately before infusion and after the start of each infusion, blood was drawn at periodic times (over a total 72 hour period) to monitor the effect of infusion on the following laboratory studies: activated partial thromboplastin time (aPTT), prothrombin time (PT), activated clotting time (ACT), and ODSH plasma level. Serum chemistries and a complete blood count were checked immediately before infusion and again periodically for up to 240 hours later. Using values for aPTT and ODSH levels, pharmacokinetic parameters were calculated by noncompartmental methods using a commercial software program (PhAST 2.3-001). The following pharmacokinetic parameters were calculated as above: Cmax; Kel; tmax; AUC O-t; AUCinf, t1/2; CL; and Vdss.

2-O, 3-O desulfated heparin [ODSH]
Global Ejection Fraction, Ischemia ([1]; ODS 15 mg/kg (second line, r8)): 23 ± 3% | Global Ejection Fraction, Baseline ([1]; ODS 15 mg/kg (second line, r8)): 57 ± 4% | Global Ejection Fraction, 180 Minutes after End of Ischemia ([1]; ODS 15 mg/kg (second line, r8)): 42 ± 4% | Global Ejection Fraction, Ischemia ([1]; ODS 45 mg/kg): 30 ± 3% | Global Ejection Fraction, Baseline ([1]; ODS 45 mg/kg): 60 ± 2% | Global Ejection Fraction, 180 Minutes after End of Ischemia ([1]; ODS 45 mg/kg): 38 ± 6% | ejection fraction at 3 hours after the end of ischemia versus control ([1]; ODS-treated animals, all doses): tended to be higher | Global Ejection Fraction, Baseline ([1]; line printed ODS 15 mg/kg (first of two, r7), control 52 ± 2): 61 ± 2% | Global Ejection Fraction, Ischemia ([1]; line printed ODS 15 mg/kg (first of two, r7), control 25 ± 2): 30 ± 3% | Global Ejection Fraction, 180 Minutes after End of Ischemia ([1]; line printed ODS 15 mg/kg (first of two, r7)): 42 ± 5% | ACT increases [2]: ACT increases providing adequate therapeutic anticoagulation necessary for the cardiac catheterization laboratory were observed in all dosing regimens | Mean clearance values, range over the dose groups ([3]; human, iv): 0.172 to 0.257 mL/min/kg | Mean elimination half-life values, range over the dose groups ([3]; human, iv): 1.93 to 2.72 h | Median tmax values, range over the dose groups ([3]; human, iv): 0.37 to 0.88 h | AUC 0-t ([3]; human, iv, 4 mg/kg): 307.2 µg·h/mL | AUCinf ([3]; human, iv, 4 mg/kg): 415.2 µg·h/mL | CL ([3]; human, iv, 4 mg/kg): 0.1709 ± 0.064973 mL/min/kg | Cmax ([3]; human, iv, 4 mg/kg): 130.76 µg/mL | MRT ([3]; human, iv, 4 mg/kg): 3.780 ± 1.6710 h | Vdss ([3]; human, iv, 4 mg/kg): 0.03495 ± 0.011679 L/kg | t1/2 ([3]; human, iv, 4 mg/kg): 2.585 ± 1.1225 h | tmax ([3]; human, iv, 4 mg/kg): 0.47 h | AUC 0-t ([3]; human, iv, 8 mg/kg): 461.9 µg·h/mL | AUCinf ([3]; human, iv, 8 mg/kg): 629.2 µg·h/mL | CL ([3]; human, iv, 8 mg/kg): 0.2147 ± 0.039202 mL/min/kg | Cmax ([3]; human, iv, 8 mg/kg): 163.74 µg/mL | MRT ([3]; human, iv, 8 mg/kg): 2.775 ± 0.6087 h | Vdss ([3]; human, iv, 8 mg/kg): 0.03513 ± 0.00658 L/kg | t1/2 ([3]; human, iv, 8 mg/kg): 1.933 ± 0.4537 h | tmax ([3]; human, iv, 8 mg/kg): 0.37 h | AUC 0-t ([3]; human, iv, 12 mg/kg): 619.1 µg·h/mL | AUCinf ([3]; human, iv, 12 mg/kg): 1086.5 µg·h/mL | CL ([3]; human, iv, 12 mg/kg): 0.1867 ± 0.036203 mL/min/kg | Cmax ([3]; human, iv, 12 mg/kg): 179.28 µg/mL | MRT ([3]; human, iv, 12 mg/kg): 3.894 ± 0.9516 h | Vdss ([3]; human, iv, 12 mg/kg): 0.04212 ± 0.00317 L/kg | t1/2 ([3]; human, iv, 12 mg/kg): 2.724 ± 0.6667 h | tmax ([3]; human, iv, 12 mg/kg): 0.88 h | AUC 0-t ([3]; human, iv, 16 mg/kg): 886.9 µg·h/mL | AUCinf ([3]; human, iv, 16 mg/kg): 1075.8 µg·h/mL | CL ([3]; human, iv, 16 mg/kg): 0.25607 ± 0.067503 mL/min/kg | Cmax ([3]; human, iv, 16 mg/kg): 285.38 µg/mL | MRT ([3]; human, iv, 16 mg/kg): 3.287 ± 1.0560 h | Vdss ([3]; human, iv, 16 mg/kg): 0.04725 ± 0.007944 L/kg | t1/2 ([3]; human, iv, 16 mg/kg): 2.261 ± 0.8548 h | tmax ([3]; human, iv, 16 mg/kg): 0.50 h | AUC 0-t ([3]; human, iv, 20 mg/kg): 1322.1 µg·h/mL | AUCinf ([3]; human, iv, 20 mg/kg): 1638.7 µg·h/mL | CL ([3]; human, iv, 20 mg/kg): 0.20877 ± 0.003483 mL/min/kg | Cmax ([3]; human, iv, 20 mg/kg): 366.73 µg/mL | MRT ([3]; human, iv, 20 mg/kg): 3.639 ± 0.6670 h | Vdss ([3]; human, iv, 20 mg/kg): 0.04556 ± 0.008256 L/kg | t1/2 ([3]; human, iv, 20 mg/kg): 2.637 ± 0.4765 h | tmax ([3]; human, iv, 20 mg/kg): 0.50 h | ODSH plasma levels produced [3]: > 300 µg/mL | CL [4]: 0.17 mL/min/kg | Vdss [4]: 0.0489 L/kg | t1/2 [4]: 3.3 h | tmax [4]: 0.5 h | AUC, range across subjects ([4]; 8 mg/kg): 3,528-4,694 μg hr/mL | CL, range across subjects ([4]; 8 mg/kg): 0.147 to 0.197 mL/min/kg | Cmax, range across subjects ([4]; 8 mg/kg): 131 to 192 µg/mL | Vdss, range across subjects ([4]; 8 mg/kg): 0.0237 to 0.0662 L/kg | t1/2, range across subjects ([4]; 8 mg/kg): 1.9 to 4.4 h
